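A five-concentration, 48-hour dose response in 96-well plates underlies each endpoint, interpolated linearly between surrounding concentrations. GI50 = concentration required for 50% inhibition of growth.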 Active and inactive are the calls of the source. Rule as the data show it: active = GI50 up to about 1.1 µM and inactive = higher.
Legend:
Assay in all cases: NCI-60 cell line screen, 48 h
LXFL 529 = test system: LXFL 529
U-251 = test system: U-251
OVCAR-4 = test system: OVCAR-4
M14 = test system: M14
A498 = test system: A498
HCT-15 = test system: HCT-15
DMS-273 = test system: DMS-273
A549 = test system: A549
SK-MEL-28 = test system: SK-MEL-28
SK-OV-3 = test system: SK-OV-3
SK-MEL-5 = test system: SK-MEL-5
SF-539 = test system: SF-539
HCC 2998 = test system: HCC 2998
HL-60 = test system: HL-60
CAKI-1 = test system: CAKI-1
OVCAR-3 = test system: OVCAR-3
HOP-92 = test system: HOP-92
EKVX = test system: EKVX
Hs-578T = test system: Hs-578T
MDA-N = test system: MDA-N

SMILES	GI50 (LXFL 529)	GI50 (U-251)	GI50 (OVCAR-4)	GI50 (M14)	GI50 (A498)	GI50 (HCT-15) [µM]	GI50 (DMS-273)	GI50 (A549)	GI50 (SK-MEL-28)	GI50 (SK-OV-3)	GI50 (SK-MEL-5)	GI50 (SF-539)	GI50 (HCC 2998)	GI50 (HL-60)	GI50 (CAKI-1)	GI50 (OVCAR-3)	GI50 (HOP-92)	GI50 (EKVX)	GI50 (Hs-578T)	GI50 (MDA-N)
CC(C)N1CC2CC(CN(C(=O)c3ccccc3)C2)C1.[O-][Cl+3]([O-])([O-])O	> 100 µM (inactive)	> 100 µM (inactive)	> 100 µM (inactive)	> 100 µM (inactive)	> 100 µM (inactive)	> 100	> 100 µM (inactive)	> 100 µM (inactive)	> 100 µM (inactive)	> 100 µM (inactive)	> 100 µM (inactive)	> 100 µM (inactive)	> 100 µM (inactive)	> 100 µM (inactive)	> 100 µM (inactive)	> 100 µM (inactive)	> 100 µM (inactive)	> 100 µM (inactive)	–	–
COc1ccc(C2S/C(=C\c3cccc([N+](=O)[O-])c3)C(=O)N2NC(=O)Cc2ccccc2)cc1 (configuration not stated)	> 100 µM (inactive)	> 100 µM (inactive)	> 100 µM (inactive)	> 100 µM (inactive)	> 100 µM (inactive)	> 100	> 100 µM (inactive)	> 100 µM (inactive)	> 100 µM (inactive)	> 100 µM (inactive)	> 100 µM (inactive)	> 100 µM (inactive)	–	> 100 µM (inactive)	> 100 µM (inactive)	–	> 100 µM (inactive)	–	–	–
COC(=O)C1=C(C(=O)OC)C2C=CC1C1C(Cl)=C(Cl)C21 (configuration not stated)	> 100 µM (inactive)	> 100 µM (inactive)	> 100 µM (inactive)	> 100 µM (inactive)	–	> 100	> 100 µM (inactive)	> 100 µM (inactive)	> 100 µM (inactive)	> 100 µM (inactive)	88.7 µM (inactive)	> 100 µM (inactive)	> 100 µM (inactive)	> 10 µM (inactive)	> 100 µM (inactive)	> 100 µM (inactive)	40.1 µM (inactive)	> 100 µM (inactive)	–	–
O=C(CCC(=O)Nc1cccc(C(F)(F)F)c1)CC(=O)c1ccc2ccccc2c1	> 100 µM (inactive)	> 100 µM (inactive)	> 100 µM (inactive)	> 100 µM (inactive)	> 100 µM (inactive)	> 100	> 100 µM (inactive)	> 100 µM (inactive)	–	> 100 µM (inactive)	> 100 µM (inactive)	> 100 µM (inactive)	> 100 µM (inactive)	> 100 µM (inactive)	> 100 µM (inactive)	> 100 µM (inactive)	> 100 µM (inactive)	> 100 µM (inactive)	–	–
COc1c(C(=O)O)oc2c(OC)cccc12	> 100 µM (inactive)	> 100 µM (inactive)	> 100 µM (inactive)	> 100 µM (inactive)	> 100 µM (inactive)	> 100	> 100 µM (inactive)	> 100 µM (inactive)	> 100 µM (inactive)	> 100 µM (inactive)	> 100 µM (inactive)	> 100 µM (inactive)	> 100 µM (inactive)	> 100 µM (inactive)	–	> 100 µM (inactive)	> 100 µM (inactive)	> 100 µM (inactive)	–	–
O=c1nc2sc3ccc4ccccc4c3n2nc1-c1ccccc1	44.7 µM (inactive)	19 µM (inactive)	14.7 µM (inactive)	44.4 µM (inactive)	–	45.1	39.2 µM (inactive)	28.6 µM (inactive)	35.6 µM (inactive)	36.1 µM (inactive)	59.2 µM (inactive)	14.8 µM (inactive)	> 100 µM (inactive)	> 100 µM (inactive)	31.1 µM (inactive)	19 µM (inactive)	21.4 µM (inactive)	41.8 µM (inactive)	–	–
COc1ccc(C(=O)C(C(=O)C(=O)Nc2nccs2)c2ccc(OC)cc2)cc1 (configuration not stated)	> 100 µM (inactive)	> 100 µM (inactive)	> 10 µM (inactive)	> 100 µM (inactive)	> 100 µM (inactive)	> 100	> 100 µM (inactive)	> 100 µM (inactive)	> 100 µM (inactive)	> 100 µM (inactive)	> 100 µM (inactive)	> 100 µM (inactive)	–	–	> 100 µM (inactive)	> 100 µM (inactive)	> 100 µM (inactive)	–	–	–
CC1C=CC(C)C2(O)C(=O)NC(O)C12 (configuration not stated)	> 100 µM (inactive)	> 100 µM (inactive)	> 100 µM (inactive)	> 100 µM (inactive)	> 100 µM (inactive)	> 100	> 100 µM (inactive)	> 100 µM (inactive)	> 100 µM (inactive)	> 100 µM (inactive)	> 100 µM (inactive)	> 100 µM (inactive)	> 100 µM (inactive)	> 100 µM (inactive)	> 100 µM (inactive)	–	–	> 100 µM (inactive)	–	–
CC1=C(/C(C)=N/NC(=O)C(N)=O)Sc2ccccc2N1	> 100 µM (inactive)	> 100 µM (inactive)	> 100 µM (inactive)	> 100 µM (inactive)	> 100 µM (inactive)	> 100	> 100 µM (inactive)	> 100 µM (inactive)	> 100 µM (inactive)	> 100 µM (inactive)	> 100 µM (inactive)	> 100 µM (inactive)	> 100 µM (inactive)	> 100 µM (inactive)	> 100 µM (inactive)	> 100 µM (inactive)	95.1 µM (inactive)	> 100 µM (inactive)	–	–
Cc1ccccc1NC(=O)C(=O)Cc1nc2ccccc2s1	> 100 µM (inactive)	> 100 µM (inactive)	> 100 µM (inactive)	> 100 µM (inactive)	> 100 µM (inactive)	> 100	> 100 µM (inactive)	> 100 µM (inactive)	> 100 µM (inactive)	> 100 µM (inactive)	> 100 µM (inactive)	> 100 µM (inactive)	> 100 µM (inactive)	> 100 µM (inactive)	> 100 µM (inactive)	> 100 µM (inactive)	> 100 µM (inactive)	–	–	–
COc1cc2cc(OC)c3cc4c(cc3c2c(OC)c1OC)OCO4	31.3 µM (inactive)	20.8 µM (inactive)	39.4 µM (inactive)	19.7 µM (inactive)	> 45.5 µM (inactive)	12.8	15.1 µM (inactive)	44.6 µM (inactive)	> 39.6 µM (inactive)	> 64.9 µM (inactive)	23.4 µM (inactive)	31.6 µM (inactive)	11 µM (inactive)	15.3 µM (inactive)	33 µM (inactive)	41.5 µM (inactive)	> 46 µM (inactive)	50.6 µM (inactive)	–	–
O=P1(NCCCl)OCCCN1CCCl (configuration not stated) [IFOSFAMIDE]	498 µM (inactive)	310 µM (inactive)	415 µM (inactive)	> 467 µM (inactive)	428 µM (inactive)	376	364 µM (inactive)	401 µM (inactive)	385 µM (inactive)	379 µM (inactive)	398 µM (inactive)	355 µM (inactive)	346 µM (inactive)	320 µM (inactive)	287 µM (inactive)	365 µM (inactive)	333 µM (inactive)	352 µM (inactive)	> 500 µM (inactive)	> 500 µM (inactive)
COc1ccc2nc3ccccc3c(NCCCN(C)CCCl)c2c1	0.0995 µM (active)	0.287 µM (active)	0.324 µM (active)	0.453 µM (active)	0.458 µM (active)	0.444	0.153 µM (active)	0.235 µM (active)	0.521 µM (active)	0.406 µM (active)	0.365 µM (active)	0.249 µM (active)	0.388 µM (active)	0.0614 µM (active)	0.231 µM (active)	0.682 µM (active)	0.185 µM (active)	0.938 µM (active)	0.188 µM (active)	0.311 µM (active)
CCOc1ccc(/N=C\c2cc(OC)c(OC)c(OC)c2)cc1	> 100 µM (inactive)	> 100 µM (inactive)	> 100 µM (inactive)	> 100 µM (inactive)	> 100 µM (inactive)	32.4	> 100 µM (inactive)	> 100 µM (inactive)	> 100 µM (inactive)	> 100 µM (inactive)	> 100 µM (inactive)	> 100 µM (inactive)	–	> 100 µM (inactive)	> 100 µM (inactive)	> 100 µM (inactive)	> 100 µM (inactive)	> 100 µM (inactive)	–	–
[O-][S+]1Nc2cccc(C(F)(F)F)c2S1 (configuration not stated)	26.5 µM (inactive)	31.3 µM (inactive)	46.7 µM (inactive)	65.3 µM (inactive)	22.9 µM (inactive)	18.6	25.1 µM (inactive)	34 µM (inactive)	> 100 µM (inactive)	> 100 µM (inactive)	42 µM (inactive)	58.6 µM (inactive)	26.4 µM (inactive)	7.66 µM (inactive)	30.5 µM (inactive)	33.5 µM (inactive)	35.6 µM (inactive)	38.8 µM (inactive)	–	–
CSC(=S)N/N=C/c1nccc2ccccc12	0.488 µM (active)	0.875 µM (active)	1.16 µM (inactive)	1.36 µM (inactive)	2.45 µM (inactive)	3.45	1.85 µM (inactive)	1.65 µM (inactive)	2.19 µM (inactive)	6.79 µM (inactive)	1.08 µM (active)	1.08 µM (active)	1.3 µM (inactive)	0.372 µM (active)	2.34 µM (inactive)	–	1.37 µM (inactive)	2.52 µM (inactive)	–	–

Source: ChEMBL document CHEMBL1201862, “PubChem BioAssay data set” (2004)
